Source: the NIST ThermoML archive (doi:10.1016/j.fluid.2014.01.019)
± gives the expanded uncertainty stated by the source.

Experiment: xn = mol fraction of the nth substance listed
Conditions: 101 kPa, Liquid; for mass density: Vibrating tube method; for speed of sound: Frequency=2 MHz, Linear variable-path acoustic interferometer

Cc1ccccc1Cl [2-chlorotoluene] + OCc1ccccc1
mass density (298.15 K, x2 = 0.0507): 1074.83 ± 0.15 kg/m3
mass density (298.15 K, x2 = 0.1134): 1072.8 ± 0.15 kg/m3
mass density (298.15 K, x2 = 0.1507): 1071.57 ± 0.15 kg/m3
mass density (298.15 K, x2 = 0.1894): 1070.31 ± 0.15 kg/m3
mass density (298.15 K, x2 = 0.2477): 1068.37 ± 0.15 kg/m3
mass density (298.15 K, x2 = 0.3059): 1066.42 ± 0.15 kg/m3
mass density (298.15 K, x2 = 0.3686): 1064.3 ± 0.15 kg/m3
mass density (298.15 K, x2 = 0.4535): 1061.39 ± 0.15 kg/m3
mass density (298.15 K, x2 = 0.5385): 1058.41 ± 0.15 kg/m3
mass density (298.15 K, x2 = 0.6309): 1055.16 ± 0.15 kg/m3
mass density (298.15 K, x2 = 0.7003): 1052.67 ± 0.15 kg/m3
mass density (298.15 K, x2 = 0.7723): 1050.04 ± 0.15 kg/m3
mass density (298.15 K, x2 = 0.8537): 1047.01 ± 0.15 kg/m3
mass density (298.15 K, x2 = 0.8902): 1045.64 ± 0.15 kg/m3
mass density (298.15 K, x2 = 0.9547): 1043.18 ± 0.14 kg/m3
speed of sound (303.15 K, x2 = 0.0507): 1301 ± 8 m/s
speed of sound (303.15 K, x2 = 0.1134): 1320 ± 8 m/s
speed of sound (303.15 K, x2 = 0.1507): 1332 ± 8 m/s
speed of sound (303.15 K, x2 = 0.1894): 1344 ± 8 m/s
speed of sound (303.15 K, x2 = 0.2477): 1360 ± 8 m/s
speed of sound (303.15 K, x2 = 0.3059): 1377 ± 8 m/s
speed of sound (303.15 K, x2 = 0.3686): 1394 ± 9 m/s
speed of sound (303.15 K, x2 = 0.4535): 1415 ± 9 m/s
speed of sound (303.15 K, x2 = 0.5385): 1436 ± 9 m/s
speed of sound (303.15 K, x2 = 0.6309): 1456 ± 9 m/s
speed of sound (303.15 K, x2 = 0.7003): 1469 ± 9 m/s
speed of sound (303.15 K, x2 = 0.7723): 1482 ± 9 m/s
speed of sound (303.15 K, x2 = 0.8537): 1496 ± 9 m/s
speed of sound (303.15 K, x2 = 0.8902): 1499 ± 9 m/s
speed of sound (303.15 K, x2 = 0.9547): 1508 ± 9 m/s
mass density (303.15 K, x2 = 0.0507): 1071.16 ± 0.15 kg/m3
mass density (303.15 K, x2 = 0.1134): 1068.97 ± 0.15 kg/m3
mass density (303.15 K, x2 = 0.1507): 1067.66 ± 0.15 kg/m3
mass density (303.15 K, x2 = 0.1894): 1066.29 ± 0.15 kg/m3
mass density (303.15 K, x2 = 0.2477): 1064.25 ± 0.15 kg/m3
mass density (303.15 K, x2 = 0.3059): 1062.2 ± 0.15 kg/m3
mass density (303.15 K, x2 = 0.3686): 1060 ± 0.15 kg/m3
mass density (303.15 K, x2 = 0.4535): 1057.02 ± 0.15 kg/m3
mass density (303.15 K, x2 = 0.5385): 1054.04 ± 0.15 kg/m3
mass density (303.15 K, x2 = 0.6309): 1050.78 ± 0.15 kg/m3
mass density (303.15 K, x2 = 0.7003): 1048.32 ± 0.15 kg/m3
mass density (303.15 K, x2 = 0.7723): 1045.77 ± 0.15 kg/m3
mass density (303.15 K, x2 = 0.8537): 1042.88 ± 0.14 kg/m3
mass density (303.15 K, x2 = 0.8902): 1041.6 ± 0.14 kg/m3
mass density (303.15 K, x2 = 0.9547): 1039.28 ± 0.14 kg/m3
mass density (308.15 K, x2 = 0.0507): 1066.48 ± 0.15 kg/m3
mass density (308.15 K, x2 = 0.1134): 1064.3 ± 0.15 kg/m3
mass density (308.15 K, x2 = 0.1507): 1062.99 ± 0.15 kg/m3
mass density (308.15 K, x2 = 0.1894): 1061.66 ± 0.15 kg/m3
mass density (308.15 K, x2 = 0.2477): 1059.65 ± 0.15 kg/m3
mass density (308.15 K, x2 = 0.3059): 1057.64 ± 0.15 kg/m3
mass density (308.15 K, x2 = 0.3686): 1055.47 ± 0.15 kg/m3
mass density (308.15 K, x2 = 0.4535): 1052.56 ± 0.15 kg/m3
mass density (308.15 K, x2 = 0.5385): 1049.63 ± 0.15 kg/m3
mass density (308.15 K, x2 = 0.6309): 1046.46 ± 0.15 kg/m3
mass density (308.15 K, x2 = 0.7003): 1044.08 ± 0.15 kg/m3
mass density (308.15 K, x2 = 0.7723): 1041.59 ± 0.14 kg/m3
mass density (308.15 K, x2 = 0.8537): 1038.81 ± 0.14 kg/m3
mass density (308.15 K, x2 = 0.8902): 1037.56 ± 0.14 kg/m3
mass density (308.15 K, x2 = 0.9547): 1035.35 ± 0.14 kg/m3
speed of sound (313.15 K, x2 = 0.0507): 1296 ± 8 m/s
speed of sound (313.15 K, x2 = 0.1134): 1308 ± 8 m/s
speed of sound (313.15 K, x2 = 0.1507): 1316 ± 8 m/s
speed of sound (313.15 K, x2 = 0.1894): 1325 ± 8 m/s
speed of sound (313.15 K, x2 = 0.2477): 1336 ± 8 m/s
speed of sound (313.15 K, x2 = 0.3059): 1348 ± 8 m/s
speed of sound (313.15 K, x2 = 0.3686): 1360 ± 8 m/s
speed of sound (313.15 K, x2 = 0.4535): 1377 ± 8 m/s
speed of sound (313.15 K, x2 = 0.5385): 1393 ± 9 m/s
speed of sound (313.15 K, x2 = 0.6309): 1411 ± 9 m/s
speed of sound (313.15 K, x2 = 0.7003): 1426 ± 9 m/s
speed of sound (313.15 K, x2 = 0.7723): 1442 ± 9 m/s
speed of sound (313.15 K, x2 = 0.8537): 1458 ± 9 m/s
speed of sound (313.15 K, x2 = 0.8902): 1466 ± 9 m/s
speed of sound (313.15 K, x2 = 0.9547): 1478 ± 9 m/s
mass density (313.15 K, x2 = 0.0507): 1061.94 ± 0.15 kg/m3
mass density (313.15 K, x2 = 0.1134): 1059.77 ± 0.15 kg/m3
mass density (313.15 K, x2 = 0.1507): 1058.47 ± 0.15 kg/m3
mass density (313.15 K, x2 = 0.1894): 1057.14 ± 0.15 kg/m3
mass density (313.15 K, x2 = 0.2477): 1055.13 ± 0.15 kg/m3
mass density (313.15 K, x2 = 0.3059): 1053.16 ± 0.15 kg/m3
mass density (313.15 K, x2 = 0.3686): 1051.04 ± 0.15 kg/m3
mass density (313.15 K, x2 = 0.4535): 1048.18 ± 0.15 kg/m3
mass density (313.15 K, x2 = 0.5385): 1045.3 ± 0.15 kg/m3
mass density (313.15 K, x2 = 0.6309): 1042.2 ± 0.15 kg/m3
mass density (313.15 K, x2 = 0.7003): 1039.89 ± 0.14 kg/m3
mass density (313.15 K, x2 = 0.7723): 1037.48 ± 0.14 kg/m3
mass density (313.15 K, x2 = 0.8537): 1034.72 ± 0.14 kg/m3
mass density (313.15 K, x2 = 0.8902): 1033.55 ± 0.14 kg/m3
mass density (313.15 K, x2 = 0.9547): 1031.4 ± 0.14 kg/m3
